System: rodent models of neuropathic pain
Assay: rodent models of neuropathic pain
Type: in vivo
Description: The utility of peripherally-restricted GABAA receptor PAMs, agonists are not limited to treatment of the above indications; the compounds disclosed herein are also useful for treating touch over-reactivity and pain associated with other disease states, including Sensory Processing Disorder (SPD) and fibromyalgia, as well as mechanical allodynia associated with nerve injury, shingles, diabetic neuropathy, chemotherapy-induced neuropathy and other neuropathic pain states.

O=C(O)C1=CCNCC1 [Isoguvacine]
effect on tactile over-reactivity (mechanical allodynia): reduces tactile over-reactivity (mechanical allodynia)
